US9643957B2, “Heterocyclic compounds having cholesterol 24-hydroxylase activity” (TAKEDA PHARMACEUTICAL COMPANY LIMITED, priority 2012, dated 2017)

Target: T1, human CH24H (Homo sapiens, UniProt Q9Y6A2)
T1 construct: Using Full-Length Mammalian Gene Collection No. 4819975 (Invitrogen) as a template; made in house; host or cells: FreeStyle 293-F cells, transient transfection with pcDNA3.1(+)/hCH24H; lysate supernatant, not purified
Experiment: Measurement of CH24H inhibitory activity (24-HC produced from [14C] cholesterol by human CH24H lysate)
Format: biochemical
Details: 1 μM test compound, [14C] cholesterol 15 μM, 37° C. for 5 hr, read-out: Inhibitory Rate in 1 μM (%)
Experimental: The expression of human CH24H was performed using FreeStyle 293 Expression System (Invitrogen). […] After transfection, the cells were cultured at 37° C., 8% CO2 with shaking at 125 rpm for 2 days. The cells were collected by centrifugation, and suspended in a suspension buffer (100 mM potassium phosphate (pH 7.4), 0.1 mM EDTA, 1 mM DTT, 20% Glycerol). The suspended product was disrupted by a polytron homogenizer (manufactured by Kinematica), and centrifuged at 9000×g for 10 min, and the supernatant was collected. The collected supernatant was cryopreserved (−80° C.) as a human CH24H lysate standard product.
For the measurement of CH24H inhibitory activity, using the human CH24H lysate prepared in Experimental Example 2, the amount of 24-HC produced from cholesterol by catalytic activity of CH24H was measured in the presence of a test compound, and compared with that measured in the absence of the test compound. That is, a test compound solution at various concentrations was mixed with a reaction buffer (50 mM potassium phosphate containing 0.1% BSA and Complete, EDTA-free, pH 7.4) and human CH24H lysate. Then, [^14C] cholesterol (53 mCi/mmol specific activity, 15 μM) was added, and CH24H reaction was performed at 37° C. for 5 hr. After completion of the reaction, a quenching solution consisting of chloroform/methanol/distilled water (2:2:1 v/v) was added, and the resulting 24-HC was extracted by shaking. The extract was applied to silica gel thin layer chromatography (ethyl acetate:toluene=4:6), and the obtained ^14C-24HC fraction was measured with BAS2500 (Fujifilm Corporation).
The inhibitory rate (%) was calculated from the ratio of radioactivity in the presence of a test compound relative to the radioactivity in the absence of the test compound.

T1 sequence (Q9Y6A2 whole entry): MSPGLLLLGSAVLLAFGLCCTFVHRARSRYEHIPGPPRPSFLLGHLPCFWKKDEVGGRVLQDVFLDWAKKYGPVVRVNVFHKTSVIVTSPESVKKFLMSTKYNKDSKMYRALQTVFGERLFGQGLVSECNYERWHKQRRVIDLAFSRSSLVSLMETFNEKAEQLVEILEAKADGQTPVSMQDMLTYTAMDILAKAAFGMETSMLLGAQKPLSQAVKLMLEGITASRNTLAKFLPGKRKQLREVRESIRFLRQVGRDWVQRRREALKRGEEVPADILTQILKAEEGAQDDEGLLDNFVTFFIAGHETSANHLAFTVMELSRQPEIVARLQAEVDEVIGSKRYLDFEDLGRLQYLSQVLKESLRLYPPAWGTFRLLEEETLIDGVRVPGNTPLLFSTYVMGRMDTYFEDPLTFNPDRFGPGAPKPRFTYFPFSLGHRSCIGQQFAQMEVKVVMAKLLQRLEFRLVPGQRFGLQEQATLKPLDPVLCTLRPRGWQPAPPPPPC

Row | inhibition at 1 µM [%] | Structure (SMILES)
1 | 85 | Cc1cnn(-c2ccncc2N2CCC(C(=O)N(C)[C@H]3CCOC3)CC2)c1 [Example 305, N-methyl-1-(4-(4-methyl-1H-pyrazol-1-yl)pyridin-3-yl)-N-((3S)-tetrahydrofuran-3-yl)piperidine-4-carboxamide]
2 | 81 | CN(C(=O)C1CCN(c2cnccc2-n2cc(Cl)cn2)CC1)[C@H]1CCOC1 [Example 307, 1-(4-(4-chloro-1H-pyrazol-1-yl)pyridin-3-yl)-N-methyl-N-((3S)-tetrahydrofuran-3-yl)piperidine-4-carboxamide]
3 | 83 | CN(C(=O)C1CCN(c2cnccc2-n2cc(Cl)cn2)CC1)[C@@H]1CCOC1 [Example 308, 1-(4-(4-chloro-1H-pyrazol-1-yl)pyridin-3-yl)-N-methyl-N-((3R)-tetrahydrofuran-3-yl)piperidine-4-carboxamide]
4 | 85 | CN(C(=O)C1CCN(c2cncnc2-c2ccc(F)cc2)CC1)[C@H]1CCOC1 [Example 309, 1-(4-(4-fluorophenyl)pyrimidin-5-yl)-N-methyl-N-((3S)-tetrahydrofuran-3-yl)piperidine-4-carboxamide]
5 | 71 | Cc1cnn(-c2ccncc2N2CCC(C(=O)N(CCF)[C@H]3CCOC3)CC2)c1 [Example 312, N-(2-fluoroethyl)-1-(4-(4-methyl-1H-pyrazol-1-yl)pyridin-3-yl)-N-((3S)-tetrahydrofuran-3-yl)piperidine-4-carboxamide]
6 | 82 | Cc1cnn(-c2ccncc2N2CCC(C(=O)N(CCF)[C@@H]3CCOC3)CC2)c1 [Example 313, N-(2-fluoroethyl)-1-(4-(4-methyl-1H-pyrazol-1-yl)pyridin-3-yl)-N-((3R)-tetrahydrofuran-3-yl)piperidine-4-carboxamide]
7 | 91 | O=C(N1CCN(c2cncnc2-c2ccccc2)CC1)N(CCF)Cc1ccccc1 [Example 314, N-benzyl-N-(2-fluoroethyl)-4-(4-phenylpyrimidin-5-yl)piperazine-1-carboxamide]
8 | 94 | O=C(C1CCN(c2cnccc2-n2cc(Br)cn2)CC1)N1CC[C@H](F)C1 [Example 318, (1-(4-(4-bromo-1H-pyrazol-1-yl)pyridin-3-yl)piperidin-4-yl)((3S)-3-fluoropyrrolidin-1-yl)methanone]

The next lines start with the compound.

Row | Structure (SMILES) | inhibition at 1 µM [%]
9 | Cc1cnn(-c2ccncc2N2CCC(C(=O)N(C)[C@@H]3CCOC3)CC2)c1 [Example 306, N-methyl-1-(4-(4-methyl-1H-pyrazol-1-yl)pyridin-3-yl)-N-((3R)-tetrahydrofuran-3-yl)piperidine-4-carboxamide] | 85
10 | CN(C(=O)C1CCN(c2cncnc2-c2ccc(F)cc2)CC1)[C@@H]1CCOC1 [Example 310, 1-(4-(4-fluorophenyl)pyrimidin-5-yl)-N-methyl-N-((3R)-tetrahydrofuran-3-yl)piperidine-4-carboxamide] | 82
11 | Cc1cnn(-c2ccncc2N2CCC(C(=O)N(CCF)C3CCOCC3)CC2)c1 [Example 311, N-(2-fluoroethyl)-1-(4-(4-methyl-1H-pyrazol-1-yl)pyridin-3-yl)-N-(tetrahydro-2H-pyran-4-yl)piperidine-4-carboxamide] | 79
12 | Cc1cnn(-c2ccncc2N2CCN(C(=O)N(CCF)Cc3ccc(F)cc3)CC2)c1 [Example 315, N-(4-fluorobenzyl)-N-(2-fluoroethyl)-4-(4-(4-methyl-1H-pyrazol-1-yl)pyridin-3-yl)piperazine-1-carboxamide] | 94
13 | Cc1cnc(-c2ccncc2N2CCC(C(=O)N3CC[C@H](F)C3)CC2)s1 [Example 316, ((3S)-3-fluoropyrrolidin-1-yl)(1-(4-(5-methyl-1,3-thiazol-2-yl)pyridin-3-yl)piperidin-4-yl)methanone] | 94
14 | Cc1cnc(-c2ccncc2N2CCC(C(=O)N3CC(F)C3)CC2)s1 [Example 317, (3-fluoroazetidin-1-yl) (1-(4-(5-methyl-1,3-thiazol-2-yl)pyridin-3-yl)piperidin-4-yl)methanone] | 95
